Laboratory results reported in ChEMBL document CHEMBL3885881, “DrugMatrix”.

Organism: Rattus norvegicus
Test: DrugMatrix - Regimen: Daily Repeat
Format: toxicity, organism-based, Sprague-Dawley
Set-up: regimen Daily Repeat, gender Male, age 6-8 weeks
Conditions: in vivo, po, route oral GAVAGE, vehicle .5 % CMC; for BASOPHIL / EOSINOPHIL / ERYTHROCYTE COUNT / HEMATOCRIT / LEUKOCYTE COUNT / LYMPHOCYTE / MEAN CORPUSCULAR HEMOGLOBIN / MEAN CORPUSCULAR HEMOGLOBIN CONCENTRATION / MEAN CORPUSCULAR VOLUME / MONOCYTE / NEUTROPHIL / PLATELET COUNT: tissue Blood; for ALANINE AMINOTRANSFERASE / ALBUMIN / ALKALINE PHOSPHATASE / ASPARTATE AMINOTRANSFERASE / BLOOD UREA NITROGEN / CHLORIDE / CHOLESTEROL / CREATINE PHOSPHOKINASE / CREATININE / GLUCOSE / PHOSPHORUS / POTASSIUM / SODIUM / TOTAL BILIRUBIN / TOTAL PROTEIN: tissue Plasma
[1] = 0 mg/kg, 72 h, dose level Control, time 3 day
[2] = 0 mg/kg, 120 h, dose level Control, time 5 day
[3] = 3 mg/kg, 72 h, dose level Low, time 3 day
[4] = 3 mg/kg, 120 h, dose level Low, time 5 day

Structure (SMILES): NCCCC(O)(P(=O)(O)O)P(=O)(O)O [ALENDRONIC ACID]
- BASOPHIL [1]: 0%
- EOSINOPHIL [1]: 0%
- ERYTHROCYTE COUNT [1]: 6.19 x10E6/uL
- HEMATOCRIT [1]: 36.94%
- LEUKOCYTE COUNT [1]: 11.54 x10E3/uL
- LYMPHOCYTE [1]: 84.8%
- MEAN CORPUSCULAR HEMOGLOBIN [1]: 23.58 pg
- MEAN CORPUSCULAR HEMOGLOBIN CONCENTRATION [1]: 39.44 G/DL
- MEAN CORPUSCULAR VOLUME [1]: 59.76 fL
- MONOCYTE [1]: 1.4%
- NEUTROPHIL [1]: 13.8%
- PLATELET COUNT [1]: 1068.8 x10E3/uL
- ALANINE AMINOTRANSFERASE [1]: 38.17 u/L
- ALBUMIN [1]: 3.88 G/DL
- ALKALINE PHOSPHATASE [1]: 391.33 u/L
- ASPARTATE AMINOTRANSFERASE [1]: 69.83 u/L
- BLOOD UREA NITROGEN [1]: 15 mg/dL
- CHLORIDE [1]: 104.17 MEQ/L
- CHOLESTEROL [1]: 72.17 mg/dL
- CREATINE PHOSPHOKINASE [1]: 174.33 u/L
- CREATININE [1]: 0.58 mg/dL
- GLUCOSE [1]: 192.67 mg/dL
- PHOSPHORUS [1]: 10.52 mg/dL
- POTASSIUM [1]: 6.8 MEQ/L
- SODIUM [1]: 149.67 MEQ/L
- TOTAL BILIRUBIN [1]: 0.78 mg/dL
- TOTAL PROTEIN [1]: 6.28 G/DL
- BASOPHIL [2]: 0%
- EOSINOPHIL [2]: 0.17%
- ERYTHROCYTE COUNT [2]: 6.72 x10E6/uL
- HEMATOCRIT [2]: 40.02%
- LEUKOCYTE COUNT [2]: 9.5 x10E3/uL
- LYMPHOCYTE [2]: 87.17%
- MEAN CORPUSCULAR HEMOGLOBIN [2]: 23.57 pg
- MEAN CORPUSCULAR HEMOGLOBIN CONCENTRATION [2]: 39.62 G/DL
- MEAN CORPUSCULAR VOLUME [2]: 59.55 fL
- MONOCYTE [2]: 1.67%
- NEUTROPHIL [2]: 11%
- PLATELET COUNT [2]: 1053.67 x10E3/uL
- ALANINE AMINOTRANSFERASE [2]: 26.33 u/L
- ALBUMIN [2]: 4.02 G/DL
- ALKALINE PHOSPHATASE [2]: 316.67 u/L
- ASPARTATE AMINOTRANSFERASE [2]: 61.33 u/L
- BLOOD UREA NITROGEN [2]: 18.67 mg/dL
- CHLORIDE [2]: 108 MEQ/L
- CHOLESTEROL [2]: 65.17 mg/dL
- CREATINE PHOSPHOKINASE [2]: 161.17 u/L
- CREATININE [2]: 0.75 mg/dL
- GLUCOSE [2]: 177.33 mg/dL
- PHOSPHORUS [2]: 9.72 mg/dL
- POTASSIUM [2]: 6.18 MEQ/L
- SODIUM [2]: 150.5 MEQ/L
- TOTAL BILIRUBIN [2]: 0.68 mg/dL
- TOTAL PROTEIN [2]: 6.55 G/DL
- BASOPHIL [3]: 0%
- EOSINOPHIL [3]: 0%
- ERYTHROCYTE COUNT [3]: 5.67 x10E6/uL
- HEMATOCRIT [3]: 34.63%
- LEUKOCYTE COUNT [3]: 9.73 x10E3/uL
- LYMPHOCYTE [3]: 86.33%
- MEAN CORPUSCULAR HEMOGLOBIN [3]: 24.23 pg
- MEAN CORPUSCULAR HEMOGLOBIN CONCENTRATION [3]: 39.67 G/DL
- MEAN CORPUSCULAR VOLUME [3]: 61.13 fL
- MONOCYTE [3]: 1.33%
- NEUTROPHIL [3]: 12.33%
- PLATELET COUNT [3]: 1035.67 x10E3/uL
- ALANINE AMINOTRANSFERASE [3]: 34 u/L
- ALBUMIN [3]: 3.77 G/DL
- ALKALINE PHOSPHATASE [3]: 322.33 u/L
- ASPARTATE AMINOTRANSFERASE [3]: 69 u/L
- BLOOD UREA NITROGEN [3]: 16 mg/dL
- CHLORIDE [3]: 105.67 MEQ/L
- CHOLESTEROL [3]: 63 mg/dL
- CREATINE PHOSPHOKINASE [3]: 139.33 u/L
- CREATININE [3]: 0.6 mg/dL
- GLUCOSE [3]: 171 mg/dL
- PHOSPHORUS [3]: 10.3 mg/dL
- POTASSIUM [3]: 6.6 MEQ/L
- SODIUM [3]: 150 MEQ/L
- TOTAL BILIRUBIN [3]: 0.57 mg/dL
- TOTAL PROTEIN [3]: 5.97 G/DL
- BASOPHIL [4]: 0%
- EOSINOPHIL [4]: 0.67%
- ERYTHROCYTE COUNT [4]: 6.7 x10E6/uL
- HEMATOCRIT [4]: 40.67%
- LEUKOCYTE COUNT [4]: 10.57 x10E3/uL
- LYMPHOCYTE [4]: 75%
- MEAN CORPUSCULAR HEMOGLOBIN [4]: 24.1 pg
- MEAN CORPUSCULAR HEMOGLOBIN CONCENTRATION [4]: 39.7 G/DL
- MEAN CORPUSCULAR VOLUME [4]: 60.77 fL
- MONOCYTE [4]: 3%
- NEUTROPHIL [4]: 21.33%
- PLATELET COUNT [4]: 904.33 x10E3/uL
- ALANINE AMINOTRANSFERASE [4]: 30.67 u/L
- ALBUMIN [4]: 4.1 G/DL
- ALKALINE PHOSPHATASE [4]: 352.33 u/L
- ASPARTATE AMINOTRANSFERASE [4]: 64 u/L
- BLOOD UREA NITROGEN [4]: 14.67 mg/dL
- CHLORIDE [4]: 106 MEQ/L
- CHOLESTEROL [4]: 64.33 mg/dL
- CREATINE PHOSPHOKINASE [4]: 130.33 u/L
- CREATININE [4]: 0.77 mg/dL
- GLUCOSE [4]: 191 mg/dL
- PHOSPHORUS [4]: 10.83 mg/dL
- POTASSIUM [4]: 6.4 MEQ/L
- SODIUM [4]: 150.67 MEQ/L
- TOTAL BILIRUBIN [4]: 0.83 mg/dL
- TOTAL PROTEIN [4]: 6.73 G/DL
